Laboratory results reported in patent US20260047583A1, “Bacillus Strain and Variants Thereof for Inhibition of Plant Diseases” (CHR. HANSEN A/S, priority 2022, published 2026).
Residues, ends and D or L forms follow the SMILES beside them.

What was measured:
P. irregulare = assay: Inhibitory effect of pure lipopeptides and their combinations on growth in PDB, OD 600 nm; type: cell-based, Pythium irregulare
Experimental: (§1) Increasing concentrations of pure stocks of surfactin (Sigma S3523, FIG. 3A), fengycin (Sigma SMB00292, FIG. 3B) or iturin (Sigma 11774, FIG. 3C) were added to 48-well microtiter plates containing PDB medium and a fixed fungal spore concentration. Inhibitory effect over two different phytopathogenic species was assayed, F. culmorum (FIG. 3, left) and P. irregulare (FIG. 3, right). Plates were incubated at 25° C. without shaking for 60 hours (in dark conditions) and fungal growth was measured by spectrophotometry at 600 nm. Experiments were carried out in biological duplicates with no major variations in inhibition potency of the tested strains.
(§2) Fungal growth inhibition of increasing concentrations of single compounds was compared with compound combinations, where a fixed concentration of one of them was assayed in combination with increasing concentrations of the second metabolite.

F. culmorum = assay: as above; type: cell-based, Fusarium culmorum
Experimental: as §1, §2

[1] = even at high concentrations (200-400 μg/ml), FIG. 3A
[2] = in the presence of surfactin, FIG. 4

Compound: CC(C)CCCCCCCCC[C@@H]1CC(=O)N[C@@H](CCC(=O)O)C(=O)N[C@@H](CC(C)C)C(=O)N[C@H](CC(C)C)C(=O)N[C@@H](C(C)C)C(=O)N[C@@H](CC(=O)O)C(=O)N[C@H](CC(C)C)C(=O)N[C@@H](CC(C)C)C(=O)O1 [surfactin] (HELM PEPTIDE1{E.L.[dL].V.D.[dL].L}|CHEM1{[CC(C)CCCCCCCCC[C@H](CC(=O)[*:1])O[*:2]]}$PEPTIDE1,CHEM1,1:R1-1:R1|PEPTIDE1,CHEM1,7:R2-1:R2$$$V2.0)
- inhibitory effect on growth (P. irregulare; [1]): very modest
- inhibitory effect on growth (F. culmorum; [1]): very modest

Compound: fengycin
- effective concentration of fengycin required to inhibit growth (P. irregulare; at surfactin concentrations of 100-200 μg/ml): 12.5 µg/mL
- increase of bioactivity of fengycin in the presence of surfactin (P. irregulare; [2]): up to 6 fold
- increase of bioactivity of fengycin in the presence of surfactin (F. culmorum; [2]): up to 6 fold

Compound: iturin
- effective concentration for growth inhibition (P. irregulare; 60 h, 25° C., FIG. 3C): 9 µg/mL
- effective concentration for growth inhibition (F. culmorum; 60 h, 25° C., FIG. 3C): 9 µg/mL
